In article PMC5218480 (PLoS ONE, 2017):

Tested on: MV-4-11 cells
Assay: Gene expression microarray analysis (Affymetrix PrimeView) and GSEA
Type: cell-based, human
Design: RFU PODN (11730768_x_at) / Fold change /veh PODN (11730768_x_at) / RFU LINC00158 (11744669_a_at) / Fold change /veh LINC00158 (11744669_a_at) / RFU DUSP10 (11751237_a_at) / Fold change /veh DUSP10 (11751237_a_at) / RFU ID3 (11757404_x_at) / Fold change /veh ID3 (11757404_x_at) / RFU PLEKHG5 (11737974_s_at) / Fold change /veh PLEKHG5 (11737974_s_at) / RFU LRRC4B (11730491_at) / Fold change /veh LRRC4B (11730491_at) / RFU GIMAP4 (11747438_a_at) / Fold change /veh GIMAP4 (11747438_a_at) / RFU KRT8 (11758183_x_at) / Fold change /veh KRT8 (11758183_x_at) / RFU CNN1 (11734310_a_at) / Fold change /veh CNN1 (11734310_a_at) / RFU VPS37D (11726825_at) / Fold change /veh VPS37D (11726825_at) / RFU C10orf10 (11716522_x_at) / Fold change /veh C10orf10 (11716522_x_at) / RFU KIR2DL2 /// KIR2DL4 /// KIR2DL5A /// KIR2DL5B /// KIR2DS1 /// KIR2DS2 /// KIR2DS3 /// KIR2DS4 /// KIR3DL3 /// KIR3DL3 /// KIR3DS1 (11738374_at) / Fold change /veh KIR2DL2 /// KIR2DL4 /// KIR2DL5A /// KIR2DL5B /// KIR2DS1 /// KIR2DS2 /// KIR2DS3 /// KIR2DS4 /// KIR3DL3 /// KIR3DL3 /// KIR3DS1 (11738374_at) / RFU C1QL1 (11718748_at) / Fold change /veh C1QL1 (11718748_at) / RFU TMPRSS4 (11747572_a_at) / Fold change /veh TMPRSS4 (11747572_a_at) / RFU HAMP (11756126_x_at) / Fold change /veh HAMP (11756126_x_at) / RFU RNFT2 (11725882_a_at) / Fold change /veh RNFT2 (11725882_a_at) / RFU NR4A2 (11747474_a_at) / Fold change /veh NR4A2 (11747474_a_at) / RFU ABCC12 (11746883_a_at) / Fold change /veh ABCC12 (11746883_a_at) / RFU TMEM136 (11760407_x_at) / Fold change /veh TMEM136 (11760407_x_at) / RFU CLDN22 /// WWC2 (11732394_at) / Fold change /veh CLDN22 /// WWC2 (11732394_at) / RFU HLA-DPB1 (11760878_x_at) / Fold change /veh HLA-DPB1 (11760878_x_at) / RFU SPINT1 (11716480_a_at) / Fold change /veh SPINT1 (11716480_a_at) / RFU GAP43 (11754022_s_at) / Fold change /veh GAP43 (11754022_s_at) / RFU A4GNT (11735810_at) / Fold change /veh A4GNT (11735810_at) / RFU PRB3 (11715151_x_at) / Fold change /veh PRB3 (11715151_x_at) / RFU TUBB4B (11761932_at) / Fold change /veh TUBB4B (11761932_at) / RFU CAPN14 (11732068_a_at) / Fold change /veh CAPN14 (11732068_a_at) / RFU TMCC2 (11721928_a_at) / Fold change /veh TMCC2 (11721928_a_at) / RFU IRGQ (11745062_a_at) / Fold change /veh IRGQ (11745062_a_at) / RFU FAM174B (11720279_a_at) / Fold change /veh FAM174B (11720279_a_at) / RFU TMPRSS4 (11748680_a_at) / Fold change /veh TMPRSS4 (11748680_a_at) / RFU FAM212B (11763350_a_at) / Fold change /veh FAM212B (11763350_a_at) / RFU PLEKHG5 (11743358_a_at) / Fold change /veh PLEKHG5 (11743358_a_at) / RFU ZSCAN30 (11745921_a_at) / Fold change /veh ZSCAN30 (11745921_a_at) / RFU CMKLR1 (11741424_a_at) / Fold change /veh CMKLR1 (11741424_a_at) / RFU LOC101060620 /// MAPK8IP1 (11723275_at) / Fold change /veh LOC101060620 /// MAPK8IP1 (11723275_at) / RFU SPTSSB (11747773_x_at) / Fold change /veh SPTSSB (11747773_x_at) / RFU PRSS12 (11739890_at) / Fold change /veh PRSS12 (11739890_at) / RFU BIN1 (11741810_x_at) / Fold change /veh BIN1 (11741810_x_at) / RFU WNT11 (11732464_a_at) / Fold change /veh WNT11 (11732464_a_at) / RFU C10orf10 (11716521_a_at) / Fold change /veh C10orf10 (11716521_a_at) / RFU C5orf56 (11738089_at) / Fold change /veh C5orf56 (11738089_at) / RFU CYB561 (11721691_x_at) / Fold change /veh CYB561 (11721691_x_at) / RFU ANKRD19P (11752326_a_at) / Fold change /veh ANKRD19P (11752326_a_at) / RFU OR2T12 /// OR2T33 /// OR2T8 (11738714_s_at) / Fold change /veh OR2T12 /// OR2T33 /// OR2T8 (11738714_s_at) / RFU VCAN (11748164_a_at) / Fold change /veh VCAN (11748164_a_at) / RFU JSRP1 (11732532_at) / Fold change /veh JSRP1 (11732532_at) / RFU KRTAP10-11 (11738290_x_at) / Fold change /veh KRTAP10-11 (11738290_x_at) / RFU MYO3A (11730013_a_at) / Fold change /veh MYO3A (11730013_a_at) / RFU EBF3 (11725865_a_at) / Fold change /veh EBF3 (11725865_a_at) / RFU CAMK2N1 (11719241_x_at) / Fold change /veh CAMK2N1 (11719241_x_at) / RFU C5orf56 (11738088_a_at) / Fold change /veh C5orf56 (11738088_a_at) / RFU OLFML3 (11715873_a_at) / Fold change /veh OLFML3 (11715873_a_at) / RFU LOC100653217 /// NTM (11731650_a_at) / Fold change /veh LOC100653217 /// NTM (11731650_a_at) / RFU MAPK11 (11762145_a_at) / Fold change /veh MAPK11 (11762145_a_at) / RFU FIZ1 (11724087_x_at) / Fold change /veh FIZ1 (11724087_x_at) / RFU OASL (11726364_x_at) / Fold change /veh OASL (11726364_x_at) / RFU SOX15 (11748057_x_at) / Fold change /veh SOX15 (11748057_x_at) / RFU CD79A (11719716_a_at) / Fold change /veh CD79A (11719716_a_at) / RFU HIST1H1D (11736915_at) / Fold change /veh HIST1H1D (11736915_at) / RFU CASKIN2 (11723855_a_at) / Fold change /veh CASKIN2 (11723855_a_at) / RFU LOC730098 (11760151_x_at) / Fold change /veh LOC730098 (11760151_x_at) / RFU OR4N2 (11742367_at) / Fold change /veh OR4N2 (11742367_at) / RFU PRRT2 (11749266_a_at) / Fold change /veh PRRT2 (11749266_a_at) / RFU SNX32 (11753110_a_at) / Fold change /veh SNX32 (11753110_a_at) / RFU CDHR5 (11726645_a_at) / Fold change /veh CDHR5 (11726645_a_at) / RFU RCAN1 (11760418_a_at) / Fold change /veh RCAN1 (11760418_a_at) / RFU FAM167A (11723789_a_at) / Fold change /veh FAM167A (11723789_a_at) / RFU FAM26E (11764081_at) / Fold change /veh FAM26E (11764081_at) / RFU ISYNA1 (11749810_s_at) / Fold change /veh ISYNA1 (11749810_s_at) / RFU ACY1 (11761880_at) / Fold change /veh ACY1 (11761880_at) / RFU 11764098_at / Fold change /veh 11764098_at / RFU SAMD14 (11745864_x_at) / Fold change /veh SAMD14 (11745864_x_at) / RFU NPB (11741838_a_at) / Fold change /veh NPB (11741838_a_at) / RFU TMPRSS6 (11731388_a_at) / Fold change /veh TMPRSS6 (11731388_a_at) / RFU KRTAP10-2 (11738614_at) / Fold change /veh KRTAP10-2 (11738614_at) / RFU ARHGAP8 /// PRR5-ARHGAP8 (11727945_x_at) / Fold change /veh ARHGAP8 /// PRR5-ARHGAP8 (11727945_x_at) / RFU KRTAP5-7 /// NADSYN1 (11734609_at) / Fold change /veh KRTAP5-7 /// NADSYN1 (11734609_at) / RFU RASL12 (11751679_a_at) / Fold change /veh RASL12 (11751679_a_at) / RFU CDKN2B (11736163_a_at) / Fold change /veh CDKN2B (11736163_a_at) / RFU PRF1 (11729649_at) / Fold change /veh PRF1 (11729649_at) / RFU, ZNF638 /// ZNF638-IT1 / Fold change vs veh, ZNF638 /// ZNF638-IT1 / RFU, PANK3 / Fold change vs veh, PANK3 / RFU, SH3YL1 / Fold change vs veh, SH3YL1 / RFU, ZEB2 / Fold change vs veh, ZEB2 / RFU, NRIP1 / Fold change vs veh, NRIP1 / RFU, PTTG1IP / Fold change vs veh, PTTG1IP / RFU, CAPN2 / Fold change vs veh, CAPN2 / RFU, MED14 / Fold change vs veh, MED14 / RFU, SNORA58 / Fold change vs veh, SNORA58 / RFU, C1orf63 / Fold change vs veh, C1orf63 / RFU, LRRFIP1 / Fold change vs veh, LRRFIP1 / RFU, NDUFAF7 / Fold change vs veh, NDUFAF7 / RFU, SLC12A2 / Fold change vs veh, SLC12A2 / RFU, IBTK / Fold change vs veh, IBTK / RFU, ESF1 / Fold change vs veh, ESF1 / Fold change vs veh, TMEM50B / RFU, TAOK1 / Fold change vs veh, TAOK1 / RFU, ACBD3 / Fold change vs veh, ACBD3 / RFU, TMA16 / Fold change vs veh, TMA16 / RFU, RWDD3 / Fold change vs veh, RWDD3 / RFU, BCAT1 / Fold change vs veh, BCAT1 / RFU, EDEM3 / Fold change vs veh, EDEM3 / RFU, TMEM33 / Fold change vs veh, TMEM33 / RFU, WDR75 / Fold change vs veh, WDR75 / RFU, AHCTF1 / Fold change vs veh, AHCTF1 / RFU, TFRC / Fold change vs veh, TFRC / RFU, ZDHHC17 / Fold change vs veh, ZDHHC17 / RFU, NOM1 / Fold change vs veh, NOM1 / RFU, ARL8B / Fold change vs veh, ARL8B / RFU, ZBTB11 / Fold change vs veh, ZBTB11 / RFU, TAMM41 / Fold change vs veh, TAMM41 / RFU, KIAA1704 /// LOC100996395 / Fold change vs veh, KIAA1704 /// LOC100996395 / RFU, ING1 / Fold change vs veh, ING1 / RFU, TRMT61B / Fold change vs veh, TRMT61B / RFU, FUBP3 / Fold change vs veh, FUBP3 / RFU, TP53 / Fold change vs veh, TP53 / RFU, TNKS2 / Fold change vs veh, TNKS2 / RFU, ZFP14 / Fold change vs veh, ZFP14 / RFU, ACTR2 / Fold change vs veh, ACTR2 / RFU, PPP3R1 / Fold change vs veh, PPP3R1 / RFU, PIK3R1 / Fold change vs veh, PIK3R1 / RFU, HNRNPA1 / Fold change vs veh, HNRNPA1 / RFU, RNF170 / Fold change vs veh, RNF170 / RFU, ZNF28 / Fold change vs veh, ZNF28 / RFU, RNGTT / Fold change vs veh, RNGTT / RFU, OGT / Fold change vs veh, OGT / RFU, BRD1 / Fold change vs veh, BRD1 / RFU, MARS / Fold change vs veh, MARS / RFU, ZNF655 / Fold change vs veh, ZNF655 / RFU, FAHD1 / Fold change vs veh, FAHD1 / RFU, BDP1 / Fold change vs veh, BDP1 / RFU, LRRCC1 / Fold change vs veh, LRRCC1 / RFU, ARID1A / Fold change vs veh, ARID1A / RFU, ZNF146 / Fold change vs veh, ZNF146 / RFU, ZNF330 / Fold change vs veh, ZNF330 / RFU, GPN3 / Fold change vs veh, GPN3 / RFU, C9orf123 / Fold change vs veh, C9orf123 / RFU, N4BP2L2 / Fold change vs veh, N4BP2L2 / RFU, ARFIP1 / Fold change vs veh, ARFIP1 / RFU, FAM179B / Fold change vs veh, FAM179B / RFU, BCL10 / Fold change vs veh, BCL10 / RFU, UHRF1BP1L / Fold change vs veh, UHRF1BP1L / RFU, BET1 / Fold change vs veh, BET1 / RFU, CNOT2 / Fold change vs veh, CNOT2 / RFU, ZNF268 / Fold change vs veh, ZNF268 / Fold change vs veh, ZNF507 / RFU, DGCR2 / Fold change vs veh, DGCR2 / RFU, WDSUB1 / Fold change vs veh, WDSUB1 / Fold change vs veh, HSP90B1 /// MIR3652 / RFU, ADSS / Fold change vs veh, ADSS / RFU, GK / Fold change vs veh, GK / RFU, ZNF148 / Fold change vs veh, ZNF148 / RFU, TAF9 / Fold change vs veh, TAF9 / RFU, SLC1A5 / Fold change vs veh, SLC1A5 / RFU, SLMO2 / Fold change vs veh, SLMO2 / RFU, ABCC4 / Fold change vs veh, ABCC4 / RFU, LOC101060439 /// RAP1B / Fold change vs veh, LOC101060439 /// RAP1B / RFU, RFX7 / Fold change vs veh, RFX7 / RFU, GTPBP10 / Fold change vs veh, GTPBP10 / RFU, CNEP1R1 / Fold change vs veh, CNEP1R1 / RFU, BIVM-ERCC5 /// ERCC5 / Fold change vs veh, BIVM-ERCC5 /// ERCC5 / RFU, ILF3 / Fold change vs veh, ILF3 / RFU 11762660_at / Fold change /veh 11762660_at / RFU VCAN (11757783_s_at) / Fold change /veh VCAN (11757783_s_at) / RFU DDX43 (11728927_at) / Fold change /veh DDX43 (11728927_at) / RFU KRT8 (11758188_x_at) / Fold change /veh KRT8 (11758188_x_at) / RFU NKD1 (11759106_at) / Fold change /veh NKD1 (11759106_at) / RFU SRD5A1 (11742802_a_at) / Fold change /veh SRD5A1 (11742802_a_at) / RFU TPSAB1 /// TPSB2 (11721975_s_at) / Fold change /veh TPSAB1 /// TPSB2 (11721975_s_at) / RFU GSTM3 (11746129_a_at) / Fold change /veh GSTM3 (11746129_a_at) / RFU IL23R (11737362_x_at) / Fold change /veh IL23R (11737362_x_at) / RFU TMEM51 (11727254_a_at) / Fold change /veh TMEM51 (11727254_a_at) / RFU PIWIL2 (11732686_x_at) / Fold change /veh PIWIL2 (11732686_x_at) / RFU ORM1 (11744905_x_at) / Fold change /veh ORM1 (11744905_x_at) / RFU CCDC152 (11743942_at) / Fold change /veh CCDC152 (11743942_at) / RFU ECM1 (11717891_a_at) / Fold change /veh ECM1 (11717891_a_at) / RFU IL23R (11748794_a_at) / Fold change /veh IL23R (11748794_a_at) / RFU TNFAIP8L3 (11732012_x_at) / Fold change /veh TNFAIP8L3 (11732012_x_at) / RFU MBOAT4 (11741988_at) / Fold change /veh MBOAT4 (11741988_at) / RFU 11764193_at / Fold change /veh 11764193_at / RFU TMEM53 (11763286_at) / Fold change /veh TMEM53 (11763286_at) / RFU MAGEB2 (11727129_at) / Fold change /veh MAGEB2 (11727129_at) / RFU TMEM200A (11744735_a_at) / Fold change /veh TMEM200A (11744735_a_at) / RFU CCDC152 (11751479_a_at) / Fold change /veh CCDC152 (11751479_a_at) / RFU FAM211A (11726209_a_at) / Fold change /veh FAM211A (11726209_a_at) / RFU RGS16 (11746705_a_at) / Fold change /veh RGS16 (11746705_a_at) / RFU VCAN (11755009_s_at) / Fold change /veh VCAN (11755009_s_at) / RFU RHOB (11743442_s_at) / Fold change /veh RHOB (11743442_s_at) / RFU RGS16 (11720943_a_at) / Fold change /veh RGS16 (11720943_a_at) / RFU RGS16 (11720944_at) / Fold change /veh RGS16 (11720944_at) / RFU, VPS4B / Fold change vs veh, VPS4B / RFU, CREB1 / Fold change vs veh, CREB1 / RFU, DNAJC13 / Fold change vs veh, DNAJC13 / RFU, GNAQ / Fold change vs veh, GNAQ / RFU, CDK5R1 / Fold change vs veh, CDK5R1 / RFU, ZRANB3 / Fold change vs veh, ZRANB3 / RFU, CUL4A / Fold change vs veh, CUL4A / RFU, CCNY / Fold change vs veh, CCNY / RFU, UFL1 / Fold change vs veh, UFL1 / RFU, COG3 / Fold change vs veh, COG3 / RFU, DIAPH2 / Fold change vs veh, DIAPH2 / RFU, SKA2 / Fold change vs veh, SKA2 / RFU, AFF3 / Fold change vs veh, AFF3 / RFU, LMF1 / Fold change vs veh, LMF1 / RFU, IPO11 / Fold change vs veh, IPO11 / RFU, DFFB / Fold change vs veh, DFFB / RFU, FOXP1 / Fold change vs veh, FOXP1 / RFU, CARD8 / Fold change vs veh, CARD8 / RFU, STRN3 / Fold change vs veh, STRN3 / RFU, ADK / Fold change vs veh, ADK / RFU, RASSF2 / Fold change vs veh, RASSF2 / RFU, WIPF1 / Fold change vs veh, WIPF1 / RFU, LARP1B / Fold change vs veh, LARP1B / RFU, RASA1 / Fold change vs veh, RASA1 / RFU, RB1 / Fold change vs veh, RB1 / RFU, PPFIA1 / Fold change vs veh, PPFIA1 / RFU, MAT2A / Fold change vs veh, MAT2A / RFU, CCT5 / Fold change vs veh, CCT5 / RFU, WDR92 / Fold change vs veh, WDR92 / RFU, CUX1 / Fold change vs veh, CUX1 / RFU, TTC7A / Fold change vs veh, TTC7A / RFU, TMEM135 / Fold change vs veh, TMEM135 / RFU, DEPTOR / Fold change vs veh, DEPTOR / RFU, CPM / Fold change vs veh, CPM / RFU, DNAJB6 / Fold change vs veh, DNAJB6 / RFU, CACNA2D3 / Fold change vs veh, CACNA2D3 / RFU, DTX4 / Fold change vs veh, DTX4 / RFU, TFCP2 / Fold change vs veh, TFCP2 / RFU, GMCL1 /// GMCL1P1 / Fold change vs veh, GMCL1 /// GMCL1P1 / RFU, AEBP2 / Fold change vs veh, AEBP2 / RFU, SNHG1 /// SNORD22 /// SNORD25 /// SNORD26 /// SNORD27 /// SNORD28 /// SNORD29 /// SNORD31 / Fold change vs veh, SNHG1 /// SNORD22 /// SNORD25 /// SNORD26 /// SNORD27 /// SNORD28 /// SNORD29 /// SNORD31 / Fold change (Aza/veh), C12orf56 (ProbeSet 11735607_a_at) / Fold change (ACY-1035/veh), C12orf56 (ProbeSet 11735607_a_at) / Fold change (Aza/veh), FGFR1OP (ProbeSet 11751329_s_at) / Fold change (ACY-1035/veh), FGFR1OP (ProbeSet 11751329_s_at) / Fold change (Aza/veh), VPS36 (ProbeSet 11739960_a_at) / Fold change (ACY-1035/veh), VPS36 (ProbeSet 11739960_a_at) / RFU SYPL1 (11715823_x_at) / Fold change /veh SYPL1 (11715823_x_at) / RFU IGFBP7 (11715501_s_at) / Fold change /veh IGFBP7 (11715501_s_at) / RFU REEP3 (11722064_at) / Fold change /veh REEP3 (11722064_at) / RFU IGLL1 (11728026_x_at) / Fold change /veh IGLL1 (11728026_x_at): dose or concentration left out as unconfirmed
Conditions: ProbeSet 11723141_at; LIST B

Q: For `Nc1ccc(-c2cccs2)cc1NC(=O)c1ccc2c(c1)cc(C1CC1)n2CCN1CCOCC1` [ACY-1035], which “Fold change vs veh, ZBTB11” value is on record?
A: 0.84
